Where a SMILES comes first, the peptide text is derived from it. The star is where a group is joined. Orn(α-tetramethylguanidino) = CN(C)C(=N[C@@H](CCCN)C(=O)*)N(C)C
What was measured:
[1] = molecular target: T1, 50S subunit (Escherichia coli, UniProt P0A7M6+P0ADZ0+P60723+P61175); assay: Fluorescence polarization binding, 50S subunit; design: species or system E. coli
T1 construct: Ribosomes were isolated from the E. coli strain MRE600; made in house; native subunits isolated in house
Method: Several hundred grams of log-phase cells were commercially produced and purchased. Cells were washed in buffer A (20 mmol/L HEPES (pH 7.6), 6 mmol/L MgAc2, 30 mmol/L AcOK, 4 mmol/L ß-mercaptoethanol) and lysed in an M-110L microfluidizer (Microfluidics) at 17,000 psi and 4 °C. Cell debris was removed by low-speed centrifugation (15,000× g, 10 min, 4 °C) to obtain S30 lysate. Crude ribosomes, mostly containing 70S ribosomes, were pelleted by ultracentrifugation (40,000× g, 17 h, 4 °C) and resuspended in buffer A. The 70S ribosomes were separated from 30S and 50S subunits by zonal ultracentrifugation (Beckman Ti-15; 6–40% sucrose gradient in buffer A, 44,000× g, 16 h, 4 °C). The 70S-containing fractions were collected, and the ribosomes were sedimented by ultracentrifugation (40,000× g, 17 h, 4 °C). Since these 70S ribosomes still contained tRNAs and mRNA, they were resuspended in buffer B (20 mmol/L HEPES (pH 7.6), 1 mmol/L MgAc2, 0.2 mol/L NH4Ac, 4 mmol/L ß-mercaptoethanol), which allows for dissociation into 30S and 50S subunits, and subjected to a second zonal centrifugation (Beckman Ti-15, 44,000× g, 16 h, 4 °C), but this time in a 6–40% sucrose gradient prepared in buffer B. Fractions containing 30S and 50S subunits were collected, sedimented by ultracentrifugation (40,000× g, 17 h, 4 °C), resuspended in buffer A, aliquoted, shock-frozen in liquid nitrogen, and stored at −80 °C.
Dissociation constants (Kd) were determined using purified 70S ribosome, 50S or 30S subunit and cf-labeled peptides in ribosome preparation buffer. Briefly, black 384-well plates (flat bottom, 781209, Greiner Bio-One GmbH) were blocked with casein (0.5%, w/v) in PBS containing 0.05% (v/v) Tween 20 at 4 °C overnight and washed three times with phosphate buffer. A 2-fold dilution series (22 steps) of pure 70S ribosome, 50S or 30S subunit (10 μL per well) in ribosome preparation buffer was prepared in a black 384-well plate. The cf-labeled peptide was dissolved in ribosome preparation buffer (10 μL, 40 nmol/L), added to each well, centrifuged (500 x g, 2 min), and incubated at 28 ± 1 °C for 90 min. Fluorescence polarization was measured on a […]^TM microplate reader (Beckman Coulter, Krefeld, Germany) in the top reading position (λexc = 485 nm, λem = 535 nm). Data were fitted to a nonlinear dose-response logistic transition equation [y = y0 + a/(1 + (x/x0)b)] using the Levenberg-Marquardt algorithm, with Kd represented by the x0 coefficients (GraphPad Prism for Windows v. 10.1.2, San Diego, CA, USA).

[2] = system: Gram-negative bacteria; details: cited from earlier work
Source text: Here we have focused on two structurally modified versions of apidaecin 1b ([…]), which was originally isolated from the western honeybee (Apis mellifera).

[3] = molecular target: DnaK; details: read-out: Kd (DnaK); peer review response; cited from earlier work
Source text: We now introduce trigger factor in line 446 as “…molecular chaperone…” In addition, we hypothesize that Api88 binds to the ribosome within the contact area of TF, which interacts with uL23 and uL29, two proteins we report here as cross-linked to Api88.

[4] = molecular target: recombinant TF; details: fluorescence polarization; cited from earlier work
Source text: Binding sites two and three are close to uL23 and uL29, which is also supported by Api88(Y7B) cross-links. These ribosomal proteins are located adjacent to the PET exit and are binding hubs for the molecular chaperone trigger factor (TF)[34] and the signal recognition particle (SRP), a universally conserved and essential cellular machinery that directs proteins destined for membrane integration to the plasma membrane[35],[36]. This co-translational targeting is initiated by a hydrophobic signal sequence in the nascent protein chain recognized by SRP as it exits the PET. It is appealing to hypo ...

**Q.** Which results are given for `CC[C@H](C)[C@H](NC(=O)[C@H](Cc1ccc(O)cc1)NC(=O)[C@@H](NC(=O)[C@@H]1CCCN1C(=O)[C@H](CCCNC(=N)N)NC(=O)[C@H](CC(N)=O)NC(=O)[C@H](CC(N)=O)NC(=O)[C@H](CCCN)N=C(N(C)C)N(C)C)C(C)C)C(=O)N1CCC[C@H]1C(=O)N[C@@H](CCCNC(=N)N)C(=O)N1CCC[C@H]1C(=O)N[C@@H](CCCNC(=N)N)C(=O)N1CCC[C@H]1C(=O)N1CCC[C@H]1C(=O)N[C@@H](Cc1c[nH]cn1)C(=O)N1CCC[C@H]1C(=O)N[C@@H](CCCNC(=N)N)C(=O)N[C@@H](CC(C)C)C(=O)O` [Api137] ({Orn(α-tetramethylguanidino)}-NNRPVYIPRPRPPHPRL-OH)?
**A.** Kd ([1]; apparent Kd, cf-labeled PrAMP (10 μL, 40 nmol/L), ribosome preparation buffer pH 7.6, 28 °C, 90 min, mean of triplicates): 2.18 ± 0.11 µM; Kd for 50S subunit lower than for 70S ribosome ([1]; ratio 70S / 50S, cf-labeled): two-; antimicrobial activity (Api137 and Api88 compared) ([2]; Api137 and Api88): comparable level of antimicrobial activity; antibacterial activity ([2]; against Gram-negative bacteria): enhanced antibacterial activity; Kd [3]: ~5 µM; Kd [4]: > 100 µM
